In brackets after ≈: the same amount, converted by molar mass. Where a name gives a salt, the structure may show the parent alone. Read-outs that look alike come from different tables or passages of the source. A value given as a limit tells only on which side of the number the result lay.

One experiment addresses T1, E. coli topoisomerase IV (Escherichia coli, UniProt P20083).
T1 construct: purchased Inspiralis
The experiment can be described thus: Test for evaluating the activity of inhibiting E. coli topoisomerase IV enzyme (relaxation). It counts as biochemical. The procedure: The enzymatic activity of E. coli topoisomerase IV was measured by a method comprising reacting topoisomerase IV and its substrate, supercoiled pBR322 (Inspiralis), in the presence of ATP and detecting the post-reaction supercoiled pBR322/relaxed pBR322 ratio with H19.
Specifically, to 2 ng/μL of supercoiled pBR322, E. coli topoisomerase IV enzyme (Inspiralis) was added at a final concentration of 0.0075 U/μL and the mixture was incubated for 30 minutes at room temperature. This reaction was carried out in 20 mmol/L tris-HCl buffered solution (pH 8.0) comprising 0.5 mmol/L ATP, 0.005% bridge 35, 35 mmol/L ammonium acetate, 8 mmol/L magnesium chloride, 4.6% glycerol, and 1 mmol/L dithiothreitol. To the reaction mixture, H19 was added to bring the reaction to an end; thereafter, the supercoiled pBR322/relaxed pBR322 ratio was detected at excitation wavelength/emission wavelength=485 nm/535 nm. An inhibition curve was obtained by allowing the analyte compound to be present at varying concentrations during the reaction described above.

Experiment [1] relates to N. gonorrhoeae ATCC 49226. In words: Test for evaluating antibacterial activity (N. gonorrhoeae), broth microdilution MIC. It counts as cell-based. Conditions: Neisseria gonorrhoeae, ATCC49226; 35° C., 24 hours, gonococcal broth. A digest of the protocol:
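Broth microdilution in gonococcal broth with 1% supplement C, inoculum from overnight chocolate II agar culture at McFarland 0.5 diluted 5-fold.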
In general terms: Broth dilution looks for growth in wells or tubes with falling amounts of substance.

A further experiment relates to E. Coli ATCC 25922. The experiment can be described thus: Test for evaluating antibacterial activity (E. coli), broth microdilution MIC. The settings on record: Escherichia coli, ATCC25922; 35° C., 18 hours, cation-adjusted Mueller-Hinton medium. It counts as cell-based. Summed up: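 Broth microdilution per modified CLSI method in cation-adjusted Mueller-Hinton medium. Inoculum from overnight heart infusion agar growth, McFarland 0.5 suspension diluted 10-fold; incubation 35° C for 18 hours. MIC taken as lowest drug concentration with no visible growth.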

Experiment [2] addresses T2, E. coli DNA gyrase (Escherichia coli, UniProt P0AES6).
T2 construct: made in house; host or cells: E. coli BL21 (DE3)
In words: Test for evaluating the activity of inhibiting E. coli DNA gyrase enzyme (Method 2, supercoiling, recombinant gyrA/gyrB complex). It counts as biochemical. A digest of the protocol:
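Recombinant E. coli gyrA/gyrB complex (His-tagged, BL21(DE3)-expressed, Ni-NTA purified; 0.135 nmol/mL final) supercoiled relaxed pBR322 (1 ng/μL) with 0.5 mmol/L ATP in pH 8.0 Tris buffer, 60 min at room temperature. H19 stopped the reaction; supercoiled/relaxed ratio read at 485/535 nm, inhibition curves built from varying compound concentrations.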

Experiment [3] has as its target T2, E. coli DNA gyrase. The experiment can be described thus: Test for evaluating the activity of inhibiting E. coli DNA gyrase enzyme (Method 1, supercoiling, Inspiralis enzyme). It counts as biochemical. A digest of the protocol: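 Relaxed pBR322 (1 ng/μL) supercoiled by E. coli gyrase (0.006 U/μL final) with 0.5 mmol/L ATP in 20 mmol/L Tris-HCl pH 8.0, 8 mmol/L MgCl2, 35 mmol/L ammonium acetate, 60 min, room temperature. Stopped with H19; supercoiled/relaxed ratio read at 485/535 nm; inhibition curve across compound concentrations.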

Setting [4] is: read-out: E. Coli TopoIV relaxation IC50.
The mark [5] stands for this setting: Method 2, read-out: E. Coli Gyrase supercoiling IC50.
Where [6] appears, read: Method 1, read-out: E. Coli Gyrase supercoiling IC50.

T1 sequence (P20083 whole entry): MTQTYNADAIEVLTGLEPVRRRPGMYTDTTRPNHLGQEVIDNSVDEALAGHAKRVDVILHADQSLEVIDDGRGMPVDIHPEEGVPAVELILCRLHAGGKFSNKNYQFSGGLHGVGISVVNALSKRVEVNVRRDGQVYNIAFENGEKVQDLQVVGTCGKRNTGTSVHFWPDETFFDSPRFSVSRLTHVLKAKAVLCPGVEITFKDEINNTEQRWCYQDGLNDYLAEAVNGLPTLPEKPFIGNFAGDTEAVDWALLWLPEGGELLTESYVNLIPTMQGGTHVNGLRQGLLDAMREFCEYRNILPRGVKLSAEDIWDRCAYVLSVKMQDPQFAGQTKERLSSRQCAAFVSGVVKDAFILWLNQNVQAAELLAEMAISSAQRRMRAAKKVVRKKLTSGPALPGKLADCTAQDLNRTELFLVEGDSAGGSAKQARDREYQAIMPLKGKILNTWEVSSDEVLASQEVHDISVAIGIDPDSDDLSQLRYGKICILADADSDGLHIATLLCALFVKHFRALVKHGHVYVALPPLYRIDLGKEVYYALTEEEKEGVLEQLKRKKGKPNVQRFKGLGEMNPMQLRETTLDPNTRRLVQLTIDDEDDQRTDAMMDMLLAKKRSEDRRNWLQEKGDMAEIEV
T1 sequence (P0AFI2 whole entry, further chain): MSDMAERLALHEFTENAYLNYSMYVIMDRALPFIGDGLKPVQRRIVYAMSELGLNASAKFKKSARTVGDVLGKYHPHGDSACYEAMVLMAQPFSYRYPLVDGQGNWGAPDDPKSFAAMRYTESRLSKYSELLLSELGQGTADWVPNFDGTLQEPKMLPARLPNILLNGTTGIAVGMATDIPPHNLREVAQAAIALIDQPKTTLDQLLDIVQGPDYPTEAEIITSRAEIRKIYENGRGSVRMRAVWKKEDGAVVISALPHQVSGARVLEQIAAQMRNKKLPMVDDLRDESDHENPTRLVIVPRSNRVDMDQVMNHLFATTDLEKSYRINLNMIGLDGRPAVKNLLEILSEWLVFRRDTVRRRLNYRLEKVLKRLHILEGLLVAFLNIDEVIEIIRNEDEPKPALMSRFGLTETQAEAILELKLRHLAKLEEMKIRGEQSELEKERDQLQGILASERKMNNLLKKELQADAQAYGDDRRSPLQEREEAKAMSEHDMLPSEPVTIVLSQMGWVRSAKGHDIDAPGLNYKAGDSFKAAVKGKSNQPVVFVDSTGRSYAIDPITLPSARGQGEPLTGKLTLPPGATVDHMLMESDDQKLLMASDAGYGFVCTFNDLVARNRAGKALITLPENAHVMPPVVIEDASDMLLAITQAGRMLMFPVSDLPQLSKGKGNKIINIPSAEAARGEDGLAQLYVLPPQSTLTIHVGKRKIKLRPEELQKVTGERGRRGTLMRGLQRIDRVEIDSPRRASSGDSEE

On to `CNc1cccc2cc(C(=O)Nc3ccc(C(=O)O)cc3)c(=O)[nH]c12` [Example 2, 4-{[8-(methylamino)-2-oxo-1,2-dihydroquinoline-3-carbonyl]amino} benzoic acid], for which the IC50 (commonly the concentration at which inhibition is half-maximal) on E. coli topoisomerase IV (setting [4]) was 980 nM. For the same compound, the MIC (usually the lowest concentration found to suppress growth) in experiment [1] was greater than 1 µg/mL; against E. Coli ATCC 25922, 64 µg/mL (≈ 190 µM).

Regarding `CNc1cccc2cc(C(=O)NCCc3cccc(C(=O)O)c3)c(=O)[nH]c12` [Example 5, 3-(2-{[8-(methylamino)-2-oxo-1,2-dihydroquinoline-3-carbonyl]amino}ethyl)benzoic acid], the results for the IC50 at E. coli topoisomerase IV (setting [4]) and on E. coli DNA gyrase [2] (setting [5]) were 17000 nM and 9.75 nM, respectively. In the experiment on E. Coli ATCC 25922, this compound gave a minimum inhibitory concentration (MIC) greater than 64 µg/mL.

On to `CNc1cc(F)cc2cc(C(=O)Nc3ccc(C(=O)O)cc3)c(=O)[nH]c12` [Example 33, 4-[[6-Fluoro-8-(methylamino)-2-oxo-1,2-dihydroquinoline-3-carbonyl]amino]benzoic Acid], for which the IC50 came to 219 nM on E. coli topoisomerase IV and 0.36 nM on E. coli DNA gyrase [2]. Besides, the values for the minimal inhibitory concentration (MIC) (in experiment [1]; with E. Coli ATCC 25922) were 0.004 µg/mL (≈ 0.0113 µM) and 16 µg/mL (≈ 45 µM), respectively.

With `CNc1cc(F)cc2cc(C(=O)Nc3ccc(C(=O)NCCN4CCOCC4)cc3)c(=O)[nH]c12` [Example 40, 6-Fluoro-8-(methylamino)-N-(4-[[2-(morpholin-4-yl)ethyl]carbamoyl]phenyl)-2-oxo-1,2-dihydroquinoline-3-carboxamide], the half-inhibitory concentration (IC50) at E. coli topoisomerase IV (setting [4]) is 1300 nM; at E. coli DNA gyrase [2] (setting [5]), 7.29 nM. Moreover, the MIC in the experiment with E. Coli ATCC 25922 amounted to 4 µg/mL (≈ 8.56 µM).

Take `CNc1cc(F)cc2cc(C(=O)Nc3ccccc3CN(C)C3CCCCC3)c(=O)[nH]c12` [Example 52, N-(2-{[cyclohexyl(methyl)amino]methyl}phenyl)-6-fluoro-8-(methylamino)-2-oxo-1,2-dihydroquinoline-3-carboxamide]: the IC50 amounted to 519 nM on E. coli topoisomerase IV (setting [4]) and 2.47 nM on E. coli DNA gyrase [3] (setting [6]). For the same compound, the MIC in experiment [1] was 0.5 µg/mL (≈ 1.15 µM); in the experiment with E. Coli ATCC 25922 it was 16 µg/mL (≈ 36.7 µM).

As to `CNc1cc(F)cc2cc(C(=O)Nc3cnc(C(=O)O)nc3)c(=O)[nH]c12` [Example 65, 5-[[6-Fluoro-8-(methylamino)-2-oxo-1,2-dihydroquinoline-3-carbonyl]amino]pyrimidine-2-carboxylic Acid], the figures for the concentration for half-maximal inhibition (IC50) at E. coli topoisomerase IV (setting [4]) and at E. coli DNA gyrase [3] (setting [6]) were 32.5 nM and 0.95 nM, respectively. Moreover, the MIC was 0.5 µg/mL (≈ 1.4 µM) in experiment [1] and greater than 16 µg/mL against E. Coli ATCC 25922.

Regarding `CNc1cc(F)cc2cc(C(=O)Nc3ccc(C(=O)O)cc3CN(C)C3CCCCC3)c(=O)[nH]c12` [Example 70, 3-{[cyclohexyl (methyl)amino]methyl}-4-{[6-fluoro-8-(methylamino)-2-oxo-1,2-dihydroquinoline-3-carbonyl]amino} bezoic acid-hydrochloride], the IC50 on E. coli topoisomerase IV amounted to 47.4 nM; against E. coli DNA gyrase [3], 0.53 nM. The figures for the MIC (in experiment [1]; in the experiment with E. Coli ATCC 25922) were 0.03 µg/mL and 8 µg/mL, respectively.

For the compound `CNc1cc(F)cc2cc(C(=O)Nc3ccc(C(=O)O)cc3CN(C)C)c(=O)[nH]c12` [Example 85, 3-[(dimethylamino)methyl]-4-{[6-fluoro-8-(methylamino)-2-oxo-1,2-dihydroquinoline-3-carbonyl]amino} benzoic acid], the IC50 against E. coli topoisomerase IV amounted to 176 nM; at E. coli DNA gyrase [2] it was 0.61 nM. For the same compound, the MIC was 2 µg/mL (≈ 4.85 µM) in experiment [1] and greater than 4 µg/mL against E. Coli ATCC 25922.

For `CNc1cc(F)cc2cc(C(=O)Nc3ccc(C(=O)O)cc3CN3CCCCC3)c(=O)[nH]c12` [Example 96, 4-{[6-fluoro-8-(methylamino)-2-oxo-1,2-dihydroquinoline-3-carbonyl]amino}-3-[(piperidine-1-yl)methyl] benzoic acid], the IC50 against E. coli topoisomerase IV amounted to 15.3 nM; on E. coli DNA gyrase [2], 0.31 nM. Besides, the minimum inhibitory concentration (MIC) in experiment [1] came out at 0.015 µg/mL (≈ 0.0332 µM); against E. Coli ATCC 25922 it was 4 µg/mL (≈ 8.84 µM).

Turning to `CCCCCN(C)Cc1cc(C(=O)O)ccc1NC(=O)c1cc2cc(F)cc(NC)c2[nH]c1=O` [Example 98, 4-{[6-fluoro-8-(methylamino)-2-oxo-1,2-dihydroquinoine-3-carbonyl]amino}-3-{[methyl (pentyl)amino)methyl} benzoic acid], the IC50 amounted to 41.4 nM on E. coli topoisomerase IV and 0.21 nM on E. coli DNA gyrase [2]. Besides, the MIC amounted to 0.06 µg/mL (≈ 0.128 µM) in experiment [1] and 4 µg/mL (≈ 8.54 µM) against E. Coli ATCC 25922.

With `CNc1cc(F)cc2cc(C(=O)Nc3ccc(C(=O)O)cc3CN(CCO)C3CCCCC3)c(=O)[nH]c12.Cl` [Example 104, 3-{[cyclohexyl (2-hydroxyethyl)amino]methyl}-4-{[6-fluoro-8-(methylamino)-2-oxo-1,2-dihydroquinoline-3-carbonyl]amino} benzoic acid-hydrochloride], the IC50 was determined as 23.4 nM on E. coli topoisomerase IV and 0.29 nM on E. coli DNA gyrase [2]. In addition, the minimum inhibitory concentration (MIC) was 0.015 µg/mL in experiment [1] and 8 µg/mL in the experiment on E. Coli ATCC 25922.

With `CNc1cc(F)cc2cc(C(=O)Nc3ccc(C(=O)O)cc3CN(CC(=O)O)C3CCCCC3)c(=O)[nH]c12` [Example 107, 3-{[(carboxymethyl) (cyclohexyl)amino]methyl} -4-{[6-fluoro-8-(methylamino)-2-oxo-1,2-dihydroquinoline-3-carbonyl]amino} benzoic acid], the IC50 on E. coli topoisomerase IV (setting [4]) was 76.3 nM; at E. coli DNA gyrase [2] (setting [5]), 0.57 nM. Also, the minimum inhibitory concentration (MIC) is 0.5 µg/mL (≈ 0.953 µM) in experiment [1] and greater than 64 µg/mL against E. Coli ATCC 25922.

As for `CNc1cc(F)cc2c(O)c(C(=O)Nc3ccc(C(=O)O)cc3)c(=O)[nH]c12` [Example 117, 4-[[6-Fluoro-4-hydroxy-8-(methylamino)-2-oxo-1,2-dihydroquinoline-3-carbonyl]amino]benzoic Acid], the IC50 at E. coli topoisomerase IV (setting [4]) was determined as 62.9 nM; at E. coli DNA gyrase [2] (setting [5]), 1.1 nM. For the same compound, the minimum inhibitory concentration (MIC) is 0.0005 µg/mL (≈ 0.00135 µM) in experiment [1] and 1 µg/mL (≈ 2.69 µM) against E. Coli ATCC 25922.

For `CNc1cc(F)cc2cc(C(=O)Nc3ccccc3CN(CCO)C3CCCCC3)c(=O)[nH]c12` [Example 123, N-(2-{[cyclohexyl(2-hydroxyethyl)amino]methyl}phenyl)-6-fluoro-8-(methylamino)-2-oxo-1,2-dihydroquinoline-3-carboxamide], the IC50 at E. coli topoisomerase IV (setting [4]) came out at 615 nM; at E. coli DNA gyrase [2] (setting [5]), 3.59 nM. For the same compound, the MIC against E. Coli ATCC 25922 came out at 8 µg/mL (≈ 17.1 µM).

`CNc1cc(F)cc2c(NCC3CCNC3)c(C(=O)Nc3ccc(C(=O)O)cc3)c(=O)[nH]c12.O=CO` (stereo not shown) [Example 133, 4-{[6-fluoro-8-(methylamino)-2-oxo-4-{[(pyrrolidine-3-yl)methyl]amino}-1,2-dihydroqunoline-3-carbonyl]amino}benzoic acid-formate]: the IC50 on E. coli topoisomerase IV was determined as 160 nM; on E. coli DNA gyrase [2] it was 0.82 nM. For the same compound, the MIC against E. Coli ATCC 25922 is greater than 16 µg/mL.

In the case of `CNc1cc(F)cc2cc(C(=O)Nc3ccc(C(=O)NS(=O)(=O)N(C)C)cc3)c(=O)[nH]c12` [Example 146, N-{4-[(dimethylsulfamoyl)carbamoyl]phenyl}-6-fluoro-8-(methylamino)-2-oxo-1,2-dihydroquinoline-3-carboxamide], the IC50 at E. coli topoisomerase IV (setting [4]) turned out to be 51.9 nM; on E. coli DNA gyrase [2] (setting [5]) it was 0.43 nM. The minimum inhibitory concentration (MIC) in experiment [1] was 0.008 µg/mL (≈ 0.0173 µM); in the experiment on E. Coli ATCC 25922 it was 16 µg/mL (≈ 34.7 µM).

As to `CNc1cc(F)cc2c(O)c(C(=O)Nc3ccc(C(=O)NS(=O)(=O)N(C)C)cc3)c(=O)[nH]c12` [Example 148, N-{4-[(dimethyl-sulfamoyl)carbamoyl]phenyl}-6-fluoro-4-hydroxy-8-(methylamino)-2-oxo-1,2-dihydroquinoline-3-carboxamide], the concentration for half-maximal inhibition (IC50) against E. coli topoisomerase IV is 127 nM; at E. coli DNA gyrase [2] it was 2.66 nM. For the same compound, the MIC in experiment [1] was no more than 0.0005 µg/mL; with E. Coli ATCC 25922, 1 µg/mL (≈ 2.09 µM).

Turning to `CNc1cc(F)cc2c(O)c(C(=O)Nc3ccc(C(=O)O)cc3CN3CCCCC3)c(=O)[nH]c12.O=C(O)C(F)(F)F` [Example 153, 4-{[6-fluoro-4-hydroxy-8-(methylamino)-2-oxo-1,2-dihydroquinoline-3-carbonyl]amino}-3-[(piperidine-1-yl)methyl]benzoic acid-trifluoroacetate], the results for the IC50 at E. coli topoisomerase IV and on E. coli DNA gyrase [2] were 4930 nM and 7.53 nM, respectively. Moreover, the minimum inhibitory concentration (MIC) stood at 0.06 µg/mL in experiment [1] and 8 µg/mL against E. Coli ATCC 25922.

The values are drawn from patent US20210070747A1, “2(1H)-QUINOLINONE DERIVATIVE” (priority 2017, published 2021).
